Consider one compound from US6570004B1 (priority 1996, dated 2003).

The experiment concerns dapE- H. pylori mutant. The class given is cell-based, Helicobacter pylori.

Take `N[C@H](CCC[C@H](N)C(=O)O)C(=O)O` [DAP, diaminopimelic acid]: the “Minimum DAP concentration required for survival of the dapE− mutant” value was determined as 0.2 mM.
